Assay [1] deals with L6-myotubes. The assay can be described thus: Measurement of intracellular cAMP levels in differentiated L6 cells (alpha screen cAMP kit), compared to isoproterenol. The format is cell-based. As to conditions: Rattus norvegicus, L6, 0.25 h, agonist 1×10^−5 M, 15 min, read-out: Biological example 2: intracellular cAMP levels, activity compared to that of isoproterenol. The method, then: (§1) L6-myoblasts were grown in Dulbecco's Modified Eagle's Medium (DMEM) containing 1 g/L glucose supplemented with 10% fetal bovine serum, 2 mM L-Glutamine, 50 U/mL penicillin, 50 μg/mL streptomycin and 10 mM HEPES. Cells were plated at 1×10^5 cells per mL in 24-well plates. After reaching 90% confluence the cells were grown in medium containing 2% FBS for 7 days where upon cells differentiated into myotubes.
Differentiated cells were serum-starved overnight and stimulated with an agonist, final concentration 1×10^−5 M, for 15 min in stimulation buffer (HBSS supplemented with 1% BSA, 5 mM HEPES and 1 mM IBMX, pH 7.4). The medium was aspirated and 100 μL of 95% EtOH was added to each well of the 24-well plate and cells were kept at −20° C. overnight. The EtOH was allowed to evaporate and 500 μL of lysis buffer (1% BSA, 5 mM HEPES and 0.3% Tween-20, pH 7.4) was added to each well. The plate was kept at −80° C. for 30 min and then at −20° C. until the day of detection when the samples were thawed. Intracellular cAMP levels were detected using an alpha screen cAMP kit (6760635D from Perkin Elmer). The activity for each compound is compared to that of isoproterenol.
For orientation: Cyclic AMP is a second messenger, typically raised through Gs and lowered through Gi signalling.

The test system of assay [2] is L6-myotubes. The assay can be described thus: Glucose uptake in differentiated L6-myotubes (3H-2-deoxyglucose), compared to isoproterenol. Type of assay: cell-based. To be noted: agonist 1×10^−5 M, 50 nM 3H-2-deoxyglucose; for Emax at 10 µM: read-out: Biological example 1: glucose uptake, activity compared to that of isoproterenol. The method, then:
as §1
Differentiated L6-myotubes were serum-starved overnight in medium containing 0.5% fatty-acid free BSA and stimulated with an agonist, with a final concentration of 1×10^−5 M. After 1 h 40 min the cells were washed with warm glucose free medium or PBS twice and another portion of agonist was added to the glucose free medium. After 20 min the cells were exposed to 50 nM ^3H-2-deoxyglucose for 10 min before washed with ice cold glucose free medium or PBS three times and lysed with 0.2 M NaOH, 400 μL/well, for 1 h at 60° C. The cell lysate was mixed with 4 mL scintillation buffer (Emulsifier Safe, Perkin Elmer) and the radioactivity was detected in a β-counter (Tri-Carb 4810TR, Perkin Elmer). The activity for each compound is compared to that of isoproterenol.

Counter-ions that a name gives are not always drawn.

`CC(=O)N[C@H]1CC[C@@H](CNC[C@H](O)c2cncc(F)c2)CC1` [Example 74, N-((1S,4s)-4-((((R)-2-(5-Fluoropyridin-3-yl)-2-hydroxyethyl)amino)-methyl)cyclohexyl)acetamide]: the Emax at 10 µM is less than 25% with L6-myotubes [1] and 25 to 50% with L6-myotubes [2].

Regarding `O=C(N[C@H]1CC[C@H](CNC[C@H](O)c2cccc(F)c2)CC1)c1ccccc1` [Example 69, N-((1R,4r)-4-((((R)-2-(3-Fluorophenyl)-2-hydroxyethyl)amino)-methyl)cyclohexyl)benzamide], the Emax at 10 µM with L6-myotubes [1] was less than 25%. For the same molecule, the “Biological example 1: glucose uptake, activity compared to that of isoproterenol” value in the assay with L6-myotubes [2] is “+ + +”.

As to `COC(=O)[C@H]1CC[C@@H](CC(C)(C)NC[C@H](O)c2cncc(F)c2)CC1` [Example 104, Methyl (1S,4s)-4-(2-(((R)-2-(5-fluoropyridin-3-yl)-2-hydroxyethyl)amino)-2-methylpropyl)cyclohexane-1-carboxylate], the Emax at 10 µM in the assay with L6-myotubes [1] was less than 25%. Besides, the “Biological example 1: glucose uptake, activity compared to that of isoproterenol” value with L6-myotubes [2] is “+ + +”.

For `O[C@@H](CNC[C@H]1CC[C@H](O)CC1)c1cccc(F)c1` [Example 30, (1R,4r)-4-((((R)-2-(3-Fluorophenyl)-2-hydroxyethyl)amino)methyl)-cyclohexan-1-ol], the Emax at 10 µM with L6-myotubes [1] is less than 25%; with L6-myotubes [2] it was 25 to 50%.

In the case of `O=C(N[C@H]1CC[C@@H](CNC[C@H](O)c2cncc(F)c2)CC1)c1ccccc1` [Example 76, N-((1S,4s)-4-((((R)-2-(5-Fluoropyridin-3-yl)-2-hydroxyethyl)amino)methyl)-cyclohexyl)benzamide], the Emax at 10 µM with L6-myotubes [1] was less than 25%. Besides, the “Biological example 1: glucose uptake, activity compared to that of isoproterenol” value in the assay on L6-myotubes [2] is recorded as “+ +”.

In the case of `CC(C)(CC[C@H]1CC[C@H](NS(C)(=O)=O)CC1)NC[C@H](O)c1cncc(F)c1` [Example 94, N-((1S,4r)-4-(3-(((R)-2-(5-Fluoropyridin-3-yl)-2-hydroxyethyl)amino)-3-methylbutyl)cyclohexyl)methanesulfonamide], the Emax at 10 µM with L6-myotubes [1] was less than 25%. Also, the “Biological example 1: glucose uptake, activity compared to that of isoproterenol” value with L6-myotubes [2] is “+ +”.

`CC(C)(C[C@H]1CC[C@@H](NC(=O)C(F)(F)F)CC1)NC[C@H](O)c1cccc(F)c1` [Example 168, 2,2,2-Trifluoro-N-((1S,4s)-4-(2-(((R)-2-(3-Fluorophenyl)-2-hydroxyethyl)-amino)-2-methylpropyl)cyclohexyl)acetamide hydrochloride]: the Emax at 10 µM in the assay on L6-myotubes [1] was less than 25%. Further, the “Biological example 1: glucose uptake, activity compared to that of isoproterenol” value in the assay with L6-myotubes [2] is “+ + +”.

As for `COC(=O)[C@H]1CC[C@H](CC(C)(C)NC[C@H](O)c2cncc(F)c2)CC1` [Example 108, Methyl (1R,4r)-4-(2-(((R)-2-(5-fluoropyridin-3-yl)-2-hydroxyethyl)amino)-2-methylpropyl)cyclohexane-1-carboxylate], the Emax at 10 µM in the assay with L6-myotubes [1] is less than 25%. In the assay with L6-myotubes [2], the “Biological example 1: glucose uptake, activity compared to that of isoproterenol” value is “+ +”.

Consider `CS(=O)(=O)N[C@H]1CC[C@H](CNC[C@H](O)c2cccc(F)c2)CC1` [Example 71, N-((1R,4r)-4-((((R)-2-(3-Fluorophenyl)-2-hydroxyethyl)amino)methyl)-cyclohexyl)methanesulfonamide], for which, in the assay with L6-myotubes [1], the Emax at 10 µM was less than 25%. Further, the “Biological example 1: glucose uptake, activity compared to that of isoproterenol” value in the assay on L6-myotubes [2] is reported as “+ +”.

Take `COC(=O)[C@H]1CC[C@@H](C(C)(C)NC[C@H](O)c2cccc(F)c2)CC1` [Example 95, Methyl (1S,4s)-4-(2-(((R)-2-(3-Fluorophenyl)-2-hydroxyethyl)amino)-propan-2-yl)cyclohexane-1-carboxylate]: the “Biological example 1: glucose uptake, activity compared to that of isoproterenol” value with L6-myotubes [2] is given as “+ + +”.

On to `COC(=O)[C@H]1CC[C@@H](C(C)(C)NC[C@H](O)c2cncc(F)c2)CC1` [Example 96, Methyl (1S,4s)-4-(2-(((R)-2-(5-Fluoropyridin-3-yl)-2-hydroxyethyl)amino)-propan-2-yl)cyclohexane-1-carboxylate], for which the “Biological example 1: glucose uptake, activity compared to that of isoproterenol” value with L6-myotubes [2] is “+ +”.

Source of the values: patent US20240390298A1, “CYCLOHEXYL BETA-HYDROXY ALKYL AMINES AND MEDICAL USES THEREOF” (ATROGI AB, priority 2021, published 2024).
